From ChEMBL document CHEMBL3272111, “Synthesis of 2-benzyloxy and 2-benzylthio analogues of primaquine as potential antimalarials” (1977)
Calls of active or inactive are those of the source. The rule behind the calls is not given here.

Experiments:
Plasmodium cynomolgi [1] = assay: Antimalarial activity against Plasmodium cynomolgi infected in monkey assessed as curative activity without disease relapses until 90 days at 1.5 mg/kg, po by radical curative monkey test; type: functional, organism-based; parameters: dose 1.5 mg/kg
Plasmodium cynomolgi [2] = assay: Antimalarial activity against Plasmodium cynomolgi infected in monkey assessed as relapses day at 0.5 mg/kg, po; type: functional
Plasmodium cynomolgi [3] = assay: Antimalarial activity against Plasmodium cynomolgi infected in monkey assessed as relapses day at 1 mg/kg, po; type: functional
Plasmodium berghei [4] = assay: Antimalarial activity against Plasmodium berghei infected in mouse at 320 to 640 mg/kg; type: functional, organism-based
Plasmodium cynomolgi [5] = assay: Antimalarial activity against Plasmodium cynomolgi infected in monkey assessed as relapses day at 10 mg/kg, po; type: functional
Plasmodium cynomolgi [6] = assay: Antimalarial activity against Plasmodium cynomolgi infected in monkey assessed as curative activity without disease relapses until 90 days at 0.75 mg/kg, po by radical curative monkey test; type: functional, organism-based; parameters: dose 0.75 mg/kg
Plasmodium cynomolgi [7] = assay: Antimalarial activity against Plasmodium cynomolgi infected in monkey assessed as curative activity without disease relapses until 90 days at 0.375 mg/kg, po by radical curative monkey test; type: functional, organism-based; parameters: dose 0.375 mg/kg
Plasmodium cynomolgi [8] = assay: Antimalarial activity against Plasmodium cynomolgi infected in monkey assessed as relapses day at 0.375 mg/kg, po; type: functional
Plasmodium cynomolgi [9] = assay: Antimalarial activity against Plasmodium cynomolgi infected in monkey assessed as curative activity without disease relapses until 90 days at 1 mg/kg, po by radical curative monkey test; type: functional, organism-based; parameters: dose 1 mg/kg
Plasmodium berghei [10] = assay: Antimalarial activity against Plasmodium berghei infected in mouse at 640 mg/kg; type: functional, organism-based; parameters: dose 640 mg/kg
Plasmodium cynomolgi [11] = assay: Antimalarial activity against Plasmodium cynomolgi infected in monkey assessed as relapses day at 0.25 mg/kg, po; type: functional

| SMILES | Time (Plasmodium cynomolgi [2]) [days] | Time (Plasmodium cynomolgi [3]) [days] | Activity (Plasmodium cynomolgi [9]) | further results |
| --- | --- | --- | --- | --- |
| COc1cc(NC(C)CCCN)c2nc(OCc3ccccc3)ccc2c1 (stereo unspecified) | – | – | – | Activity (Plasmodium cynomolgi [1]): Active |
| COc1cc(NC(C)CCCN)c2nc(SCc3ccccc3)ccc2c1.O=C(O)/C=C\C(=O)O (stereo unspecified) | 9 | 15 | – | – |
| COc1cc(NC(C)CCCN)c2nc(SCc3ccc(Cl)cc3)ccc2c1.O=C(O)/C=C\C(=O)O (stereo unspecified) | 7 | – | – | Activity (Plasmodium berghei [4]): Active; Time (Plasmodium cynomolgi [5]): 7 days |
| COc1cc(NC(C)CCCN)c2ncccc2c1.O=P(O)(O)O.O=P(O)(O)O (stereo unspecified) [PRIMAQUINE PHOSPHATE] | 11 | – | – | Activity (Plasmodium cynomolgi [6]): Active; Activity (Plasmodium cynomolgi [7]): inactive; Time (Plasmodium cynomolgi [8]): 11 days |
| COc1cc(NC(C)CCCN)c2nc(OCc3ccc(Cl)cc3)ccc2c1.O=C(O)/C=C\C(=O)O (stereo unspecified) | – | 9 | – | – |
| COc1ccc(COc2ccc3cc(OC)cc(NC(C)CCCN)c3n2)cc1.O=C(O)/C=C\C(=O)O (stereo unspecified) | – | 7 | – | Time (Plasmodium cynomolgi [5]): 18 days |
| COc1cc(NC(C)CCCN)c2nc(OCc3ccc(Cl)cc3Cl)ccc2c1.O=C(O)/C=C\C(=O)O (stereo unspecified) | 8 | – | Active | Activity (Plasmodium berghei [10]): Active |
| COc1cc(NC(C)CCCN)c2nc(OCc3ccc(F)cc3)ccc2c1.O=C(O)/C=C\C(=O)O (stereo unspecified) | 91 | – | Active | Time (Plasmodium cynomolgi [11]): 5 days; Activity (Plasmodium berghei [10]): Active |
| COc1cc(NC(C)CCCN)c2nc(OCc3cccc(C(F)(F)F)c3)ccc2c1.O=C(O)/C=C\C(=O)O (stereo unspecified) | 6 | 13 | Active | – |
| COc1cc(NC(C)CCCN)c2nc(OCc3ccc(C(F)(F)F)cc3)ccc2c1.O=C(O)/C=C\C(=O)O (stereo unspecified) | 5 | – | Active | Time (Plasmodium cynomolgi [11]): 9 days |
